Measurements published in ChEMBL document CHEMBL1201862, “PubChem BioAssay data set” (2004).
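Results reflect a 48-hour exposure of cells in 96-well plates to compound at five concentrations. Abbreviation: GI50, concentration required for 50% inhibition of growth.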 Calls of active or inactive are those of the source. Cut-off read from the data, not from the text of the source: active = GI50 up to about 1.1 µM and inactive = higher.

Assays:
Assay in all cases: NCI-60 cell line screen, 48 h
[1] = system: ACHN
[2] = system: SK-MEL-2
[3] = system: CCRF-CEM
[4] = system: RXF 393
[5] = system: SF-268
[6] = system: SK-MEL-5
[7] = system: U-251
[8] = system: SNB-75
[9] = system: NCI-H23
[10] = system: NCI-H226
[11] = system: OVCAR-5
[12] = system: OVCAR-8
[13] = system: UO-31
[14] = system: SF-295
[15] = system: SW-620
[16] = system: HL-60
[17] = system: T47D
[18] = system: IGROV-1
[19] = system: A498
[20] = system: DU-145
[21] = system: SF-539
[22] = system: SK-MEL-28
[23] = system: LOX IMVI
[24] = system: SK-OV-3
[25] = system: HCT-15
[26] = system: UACC-257
[27] = system: 786-0
[28] = system: NCI/ADR-RES
[29] = system: HCT-116
[30] = system: Hs-578T
[31] = system: HCC 2998
[32] = system: OVCAR-3
[33] = system: MDA-MB-231
[34] = system: PC-3
[35] = system: MOLT-4
[36] = system: HOP-92
[37] = system: EKVX
[38] = system: M14
[39] = system: TK-10
[40] = system: MCF7
[41] = system: HT-29
[42] = system: NCI-H460
[43] = system: SR
[44] = system: K562
[45] = system: HOP-62
[46] = system: NCI-H522
[47] = system: RPMI-8226
[48] = system: UACC-62
[49] = system: CAKI-1
[50] = system: A549
[51] = system: SNB-19
[52] = system: Malme-3M
[53] = system: COLO 205
[54] = system: MDA-N
[55] = system: SN12C

With `CCOc1cc(/C=C2/C(C)=NN(c3cccc(Cl)c3)/C2=N/c2nc3ccccc3s2)ccc1O` the GI50 [1] was 24.3 µM (inactive), the GI50 [2] was 21.1 µM (inactive) and the GI50 [3] was 33.2 µM (inactive). The GI50 [4] was 38.6 µM (inactive), the GI50 [5] was 28.2 µM (inactive) and the GI50 [6] was 17.8 µM (inactive). The GI50 [7] was 20.3 µM (inactive), the GI50 [8] was 34.8 µM (inactive) and the GI50 [9] was 19.4 µM (inactive). The GI50 [10] was 23.7 µM (inactive), the GI50 [11] was 98.9 µM (inactive) and the GI50 [12] was 30.4 µM (inactive). The GI50 [13] was 19.4 µM (inactive), the GI50 [14] was 24.8 µM (inactive) and the GI50 [15] was 34.6 µM (inactive). For the same compound, the GI50 [16] was 3.3 µM (inactive), the GI50 [17] was 38.6 µM (inactive) and the GI50 [18] was 29.6 µM (inactive). For the same compound, the GI50 [19] was 24.2 µM (inactive), the GI50 [20] was 46.1 µM (inactive) and the GI50 [21] was 24.5 µM (inactive). The GI50 [22] was 34.7 µM (inactive), the GI50 [23] was 35.9 µM (inactive) and the GI50 [24] was 23 µM (inactive). The GI50 [25] was 21.8 µM, the GI50 [26] was 23.7 µM (inactive) and the GI50 [27] was 32.1 µM (inactive). For the same compound, the GI50 [28] was 20.5 µM (inactive), the GI50 [29] was 24.2 µM (inactive) and the GI50 [30] was 29.7 µM (inactive). For the same compound, the GI50 [31] was 14.3 µM (inactive), the GI50 [32] was 20 µM (inactive) and the GI50 [33] was 24.7 µM (inactive). The GI50 [34] was 19.8 µM (inactive), the GI50 [35] was 32.7 µM (inactive) and the GI50 [36] was 23.2 µM (inactive). For the same compound, the GI50 [37] was 38.4 µM (inactive), the GI50 [38] was 24.9 µM (inactive) and the GI50 [39] was 36.9 µM (inactive). For the same compound, the GI50 [40] was 28.5 µM (inactive), the GI50 [41] was 41.2 µM (inactive) and the GI50 [42] was 25.5 µM (inactive). The GI50 [43] was 27.9 µM (inactive), the GI50 [44] was 40.4 µM (inactive) and the GI50 [45] was 23.2 µM (inactive). For the same compound, the GI50 [46] was 21.9 µM (inactive) and the GI50 [47] was 38.3 µM (inactive).
For `CC[C@@]1(O)C(=O)OCc2c1cc1n(c2=O)Cc2c-1nc1ccccc1c2/C=N\c1ccc(N[C@@H]2c3cc4c(cc3[C@@H](c3cc(OC)c(O)c(OC)c3)[C@H]3C(=O)OC[C@@H]32)OCO4)cc1`, the GI50 [3] was < 0.01 µM (active), the GI50 [6] was 0.0288 µM (active) and the GI50 [7] was 0.0904 µM (active). For the same compound, the GI50 [9] was 0.0118 µM (active), the GI50 [13] was 0.0213 µM (active) and the GI50 [48] was < 0.01 µM (active). For the same compound, the GI50 [49] was < 0.01 µM (active), the GI50 [17] was < 0.01 µM (active) and the GI50 [50] was 0.0292 µM (active). For the same compound, the GI50 [21] was < 0.01 µM (active), the GI50 [23] was < 0.01 µM (active) and the GI50 [51] was 0.0257 µM (active). For the same compound, the GI50 [26] was 0.189 µM (active), the GI50 [29] was 0.0208 µM (active) and the GI50 [38] was < 0.01 µM (active). The GI50 [44] was 0.0505 µM (active), the GI50 [45] was < 0.01 µM (active) and the GI50 [46] was 0.0254 µM (active). For the same compound, the GI50 [47] was 0.0396 µM (active).
For `COc1ccc(Oc2nc3cc(N)cc(N)c3nc2-c2ccccc2)cc1`, the GI50 [52] was 55.1 µM (inactive), the GI50 [45] was 19.2 µM (inactive) and the GI50 [47] was 10.5 µM (inactive).
With `NS(=O)(=O)c1ccc(/C=C/c2cccc(O)c2)cc1` the GI50 [2] was 25.4 µM (inactive), the GI50 [4] was > 100 µM (inactive) and the GI50 [6] was 22.2 µM (inactive). The GI50 [8] was 46.8 µM (inactive), the GI50 [11] was > 100 µM (inactive) and the GI50 [13] was 20.4 µM (inactive). For the same compound, the GI50 [14] was 46.2 µM (inactive), the GI50 [15] was 38.6 µM (inactive) and the GI50 [53] was 20 µM (inactive). For the same compound, the GI50 [17] was 25.6 µM (inactive), the GI50 [19] was 59.6 µM (inactive) and the GI50 [20] was 47.8 µM (inactive). For the same compound, the GI50 [54] was 36.5 µM (inactive), the GI50 [52] was 75.3 µM (inactive) and the GI50 [22] was 74.5 µM (inactive). For the same compound, the GI50 [55] was 50.1 µM (inactive), the GI50 [51] was 76.4 µM (inactive) and the GI50 [24] was 38.4 µM (inactive). For the same compound, the GI50 [26] was 69.5 µM (inactive), the GI50 [27] was > 100 µM (inactive) and the GI50 [28] was 32.9 µM (inactive). For the same compound, the GI50 [29] was 35.9 µM (inactive), the GI50 [31] was 77.4 µM (inactive) and the GI50 [32] was 25.9 µM (inactive). The GI50 [33] was 38 µM (inactive), the GI50 [34] was 36.7 µM (inactive) and the GI50 [37] was 55.1 µM (inactive). For the same compound, the GI50 [38] was 55.6 µM (inactive), the GI50 [39] was 28.7 µM (inactive) and the GI50 [40] was 38.9 µM (inactive). For the same compound, the GI50 [42] was 27.2 µM (inactive) and the GI50 [45] was > 100 µM (inactive).
